{
  "source": "patent US20240246908A1",
  "about": "(ORION CORPORATION, priority 2021, published 2024)",
  "test_system": "YAP-TEAD",
  "experiment": "TEAD inhibition, Hippo Pathway TEAD Reporter MCF-7 luciferase assay",
  "format": "cell-based",
  "details": "Homo sapiens, MCF7, 24 h, Hippo Pathway TEAD Reporter MCF-7 cells, luciferase activity after 24 h; read-out: IC50 of the test compounds on YAP-TEAD inhibition (Group)",
  "method_in_brief": "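IC50 derived from ONE-Glo luciferase luminescence after 24 h compound exposure (11 concentrations in quadruplicate, 0.1% DMSO control). Reporter: MCF-7 line expressing firefly luciferase under TEAD elements, constitutively activated by nuclear YAP1.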",
  "data": [
    {"smiles": "COc1ccc(Oc2ccc(C(F)(F)F)cc2)cc1NC(=O)[C@H]1CCC(=O)N1C", "note": "[Compound 69, (R)—N-(2-Methoxy-5-(4-(trifluoromethyl)phenoxy)phenyl)-1-methyl-5-oxo-pyrrolidine-2-carboxamide]", "values": [
      {"measurement": "IC50", "value": "< 50", "unit": "nM"}
    ]},
    {"smiles": "CN1C(=O)CCC1C(=O)Nc1cc(Oc2ccc(C(F)(F)F)cc2)cc2c1OCCO2", "note": "(stereo not shown) [Compound 67, 1-Methyl-5-oxo-N-(7-(4-(trifluoromethyl)phenoxy)-2,3-dihydrobenzo[b][1,4]-dioxin-5-yl)pyrrolidine-2-carboxamide]", "values": [
      {"measurement": "IC50", "value": "< 50", "unit": "nM"}
    ]},
    {"smiles": "CC(=O)N1C(=O)CCC1C(=O)Nc1cc(Oc2cccc(C(F)(F)F)c2)ccc1F", "note": "(stereo not shown) [Compound 40, 1-Acetyl-N-(2-fluoro-5-(3-(trifluoromethyl)phenoxy)phenyl)-5-oxopyrrolidine-2-carboxamide]", "values": [
      {"measurement": "IC50", "value": "301 to 2000", "unit": "nM"}
    ]},
    {"smiles": "COc1ccc(COC2CCC(F)(F)CC2)cc1NC(=O)C1CCC(=O)N1C", "note": "(stereo not shown) [Compound 205, N-(5-(((4,4-Difluorocyclohexyl)oxy)methyl)-2-methoxyphenyl)-1-methyl-5-oxopyrrolidine-2-carboxamide]", "values": [
      {"measurement": "IC50", "value": "301 to 2000", "unit": "nM"}
    ]},
    {"smiles": "CN1C(=O)CCC1C(=O)Nc1cc(Oc2ccc(C(F)(F)F)cn2)ccc1F", "note": "(stereo not shown) [Compound 368, N-(2-Fluoro-5-((5-(trifluoromethyl)pyridin-2-yl)oxy)phenyl)-1-methyl-5-oxopyrrolidine-2-carboxamide]", "values": [
      {"measurement": "IC50", "value": "50 to 300", "unit": "nM"}
    ]},
    {"smiles": "CN1C(=O)NC[C@H]1C(=O)Nc1cc(Cl)cc(Oc2ccc(C(F)(F)F)cn2)c1", "note": "[Compound 351, (S)—N-(3-Chloro-5-((5-(trifluoromethyl)pyridin-2-yl)oxy)phenyl)-3-methyl-2-oxoimidazolidine-4-carboxamide]", "values": [
      {"measurement": "IC50", "value": "< 50", "unit": "nM"}
    ]},
    {"smiles": "COc1ccc(Oc2ccc(C(F)(F)F)cn2)cc1NC(=O)C1CNC(=O)N1C1CC1", "note": "(stereo not shown) [Compound 131, 3-Cyclopropyl-N-(2-methoxy-5-((5-(trifluoromethyl)pyridin-2-yl)oxy)phenyl)-2-oxoimidazolidine-4-carboxamide]", "values": [
      {"measurement": "IC50", "value": "< 50", "unit": "nM"}
    ]},
    {"smiles": "COc1ccc(O[C@H]2CC[C@@H](C(F)(F)F)CC2)cc1NC(=O)[C@H]1CCC(=O)N1C", "note": "[Compound 209, (R)—N-(2-Methoxy-5-(((cis)-4-(trifluoromethyl)cyclohexyl)oxy)phenyl)-1-methyl-5-oxopyrrolidine-2-carboxamide]", "values": [
      {"measurement": "IC50", "value": "< 50", "unit": "nM"}
    ]},
    {"smiles": "COc1ccc(Oc2ccc(C(F)(F)F)cc2)cc1NC(=O)C1CN(C)C(=O)N1C(C)=O", "note": "(stereo not shown) [Compound 142, 3-Acetyl-N-(2-methoxy-5-(4-(trifluoromethyl)phenoxy)phenyl)-1-methyl-2-oxoimidazolidine-4-carboxamide]", "values": [
      {"measurement": "IC50", "value": "301 to 2000", "unit": "nM"}
    ]},
    {"smiles": "COc1ccc(Oc2ccc(F)c(F)c2)cc1NC(=O)[C@H]1CCC(=O)N1C", "note": "[Compound 93, (R)—N-(5-(3,4-Difluorophenoxy)-2-methoxyphenyl)-1-methyl-5-oxopyrrolidine-2-carboxamide]", "values": [
      {"measurement": "IC50", "value": "< 50", "unit": "nM"}
    ]},
    {"smiles": "COc1ccc(Oc2ccc(F)c(F)c2)cc1NC(=O)C1CCC(=O)N1C(=O)C1CC(=O)N1", "note": "(stereo not shown) [Compound 232, N-(5-(3,4-difluorophenoxy)-2-methoxyphenyl)-5-oxo-1-(4-oxoazetidine-2-carbonyl)pyrrolidine-2-carboxamide]", "values": [
      {"measurement": "IC50", "value": "50 to 300", "unit": "nM"}
    ]},
    {"smiles": "COc1ccc(Oc2ccc(Cl)cc2)cc1NC(=O)[C@@H]1CNC(=O)N1C", "note": "[Compound 356, (S)—N-(5-(4-Chlorophenoxy)-2-methoxyphenyl)-3-methyl-2-oxoimidazolidine-4-carboxamide]", "values": [
      {"measurement": "IC50", "value": "< 50", "unit": "nM"}
    ]},
    {"smiles": "COc1ccc(Oc2cccc(C(F)(F)F)c2)cc1NC(=O)C12CCC(=O)N1CCS2", "note": "(stereo not shown) [Compound 19, N-(2-Methoxy-5-(3-(trifluoromethyl)phenoxy)phenyl)-5-oxotetrahydropyrrolo[2,1-b]thiazole-7a(5H)-carboxamide]", "values": [
      {"measurement": "IC50", "value": "50 to 300", "unit": "nM"}
    ]},
    {"smiles": "CN1C(=O)NC[C@H]1C(=O)Nc1cc(/C=C/C2CCC(F)(F)CC2)cc2c1OCC2", "note": "[Compound 407, (S,E)-N-(5-(2-(4,4-Difluorocyclohexyl)vinyl)-2,3-dihydrobenzofuran-7-yl)-3-methyl-2-oxoimidazolidine-4-carboxamide]", "values": [
      {"measurement": "IC50", "value": "< 50", "unit": "nM"}
    ]},
    {"smiles": "COc1ccc(Oc2ccc(C(F)(F)F)cc2)cc1NC(=O)[C@@H]1CCC(=O)N1C(C)=O", "note": "[Compound 371, (S)-1-Acetyl-N-(2-methoxy-5-(4-(trifluoromethyl)phenoxy)-phenyl)-5-oxopyrrolidine-2-carboxamide]", "values": [
      {"measurement": "IC50", "value": "50 to 300", "unit": "nM"}
    ]},
    {"smiles": "CN1C(=O)NC[C@@H]1C(=O)Nc1cc(Oc2ccc(C(F)(F)F)cn2)cc2c1OCC2", "note": "[Compound 169, (R)-3-Methyl-2-oxo-N-(5-((5-(trifluoromethyl)pyridin-2-yl)oxy)-2,3-dihydro-benzofuran-7-yl)imidazolidine-4-carboxamide]", "values": [
      {"measurement": "IC50", "value": "50 to 300", "unit": "nM"}
    ]},
    {"smiles": "COc1cc(NC(=O)[C@H]2CCC(=O)N2C)cc(OC2CCC(C(F)(F)F)CC2)c1", "note": "(stereo partly shown) [Compound 282]", "values": [
      {"measurement": "IC50", "value": "< 50", "unit": "nM"}
    ]},
    {"smiles": "COc1ccc(OC2CCC(C(F)(F)F)CC2)cc1NC(=O)[C@H]1COC(=O)N1C", "note": "(stereo partly drawn) [Compound 208, (R)—N-(2-Methoxy-5-((4-(trifluoromethyl)cyclohexyl)oxy)phenyl)-3-methyl-2-oxooxazolidine-4-carboxamide]", "values": [
      {"measurement": "IC50", "value": "< 50", "unit": "nM"}
    ]},
    {"smiles": "COc1ccc(Oc2ccc(C(F)(F)F)cc2)cc1NC(=O)[C@H]1COC(=O)N1C", "note": "[Compound 101, (R)—N-(2-Methoxy-5-(4-(trifluoromethyl)phenoxy)phenyl)-3-methyl-2-oxooxazolidine-4-carboxamide]", "values": [
      {"measurement": "IC50", "value": "< 50", "unit": "nM"}
    ]},
    {"smiles": "NC(=O)CN1C(=O)CCC1C(=O)Nc1cc(Oc2ccc(C(F)(F)F)cc2)cc2c1OCC2", "note": "(stereo not shown) [Compound 189, 1-(2-Amino-2-oxoethyl)-5-oxo-N-(5-(4-(trifluoromethyl)phenoxy)-2,3-dihydro-benzofuran-7-yl)pyrrolidine-2-carboxamide]", "values": [
      {"measurement": "IC50", "value": "< 50", "unit": "nM"}
    ]},
    {"smiles": "COc1ccc(Oc2ccc(CF)cc2)cc1NC(=O)[C@@H]1CNC(=O)N1C", "note": "[Compound 353, (S)—N-(5-(4-(Fluoromethyl)phenoxy)-2-methoxyphenyl)-3-methyl-2-oxoimidazolidine-4-carboxamide]", "values": [
      {"measurement": "IC50", "value": "301 to 2000", "unit": "nM"}
    ]},
    {"smiles": "COc1ccc(Oc2ccc(C(F)(F)F)cc2)cc1NC(=O)[C@H]1CCC(=O)NC1", "note": "[Compound 119, (S)—N-(2-Methoxy-5-(4-(trifluoromethyl)phenoxy)phenyl)-6-oxopiperidine-3-carboxamide]", "values": [
      {"measurement": "IC50", "value": "< 50", "unit": "nM"}
    ]},
    {"smiles": "COc1ccc(Oc2ccc(Cl)c(F)c2)cc1NC(=O)C1CCC(=O)N1C", "note": "(stereo not shown) [Compound 305, N-(5-(4-Chloro-3-fluorophenoxy)-2-methoxyphenyl)-1-methyl-5-oxopyrrolidine-2-carboxamide]", "values": [
      {"measurement": "IC50", "value": "< 50", "unit": "nM"}
    ]},
    {"smiles": "COc1ccc(Oc2ccc(C(F)(F)F)cc2)cc1NC(=O)C1CCC(=O)N1C1CCOC1", "note": "(stereo not shown) [Compound 138, N-(2-Methoxy-5-(4-(trifluoromethyl)phenoxy)phenyl)-5-oxo-1-(tetrahydrofuran-3-yl)pyrrolidine-2-carboxamide]", "values": [
      {"measurement": "IC50", "value": "50 to 300", "unit": "nM"}
    ]},
    {"smiles": "CN1C(=O)CC[C@@H]1C(=O)Nc1cc(Oc2ccc(C(F)(F)F)cc2)cc2c1OCC2", "note": "[Compound 99, (R)-1-Methyl-5-oxo-N-(5-(4-(trifluoromethyl)phenoxy)-2,3-dihydrobenzofuran-7-yl)pyrrolidine-2-carboxamide]", "values": [
      {"measurement": "IC50", "value": "< 50", "unit": "nM"}
    ]},
    {"smiles": "CCN1C(=O)CC[C@H]1C(=O)Nc1cc(Oc2ccc(C(F)(F)F)cn2)cc2c1OCC2", "note": "[Compound 171, (S)-1-Ethyl-5-oxo-N-(5-((5-(trifluoromethyl)pyridin-2-yl)oxy)-2,3-dihydro-benzofuran-7-yl)pyrrolidine-2-carboxamide]", "values": [
      {"measurement": "IC50", "value": "< 50", "unit": "nM"}
    ]},
    {"smiles": "COc1ccc(Oc2ccc(C(F)(F)F)cc2)cc1NC(=O)c1ccc(=O)[nH]c1", "note": "[Compound 122, N-(2-Methoxy-5-(4-(trifluoromethyl)phenoxy)phenyl)-6-oxo-1,6-dihydro-pyridine-3-carboxamide]", "values": [
      {"measurement": "IC50", "value": "301 to 2000", "unit": "nM"}
    ]},
    {"smiles": "O=C1CC(C(=O)Nc2cccc(Oc3cccc(C(F)(F)F)c3)c2)N1", "note": "(stereo not shown) [Compound 7, 4-Oxo-N-(3-(3-(trifluoromethyl)phenoxy)phenyl)azetidine-2-carboxamide]", "values": [
      {"measurement": "IC50", "value": "301 to 2000", "unit": "nM"}
    ]},
    {"smiles": "CN1C(=O)CC[C@H]1C(=O)Nc1cc(Oc2ccc(C(F)(F)F)cn2)cc2c1OCC2", "note": "[Compound 163, (S)-1-Methyl-5-oxo-N-(5-((5-(trifluoromethyl)pyridin-2-yl)oxy)-2,3-dihydro-benzofuran-7-yl)pyrrolidine-2-carboxamide]", "values": [
      {"measurement": "IC50", "value": "< 50", "unit": "nM"}
    ]},
    {"smiles": "COc1ccc(Oc2ccc(C(F)(F)F)cc2)cc1NC(=O)[C@H]1CNC(=O)C1", "note": "[Compound 357, (R)—N-(2-Methoxy-5-(4-(trifluoromethyl)phenoxy)phenyl)-5-oxopyrrolidine-3-carboxamide]", "values": [
      {"measurement": "IC50", "value": "50 to 300", "unit": "nM"}
    ]},
    {"smiles": "COc1ccc(Oc2ccc(OC(F)(F)F)cn2)cc1NC(=O)C1CCC(=O)N1C", "note": "(stereo not shown) [Compound 115, N-(2-Methoxy-5-((5-(trifluoromethoxy)pyridin-2-yl)oxy)phenyl)-1-methyl-5-oxopyrrolidine-2-carboxamide]", "values": [
      {"measurement": "IC50", "value": "50 to 300", "unit": "nM"}
    ]},
    {"smiles": "COc1ccc(Oc2cnc(C(F)(F)F)c(F)c2)cc1NC(=O)C1CCC(=O)N1C", "note": "(stereo not shown) [Compound 399]", "values": [
      {"measurement": "IC50", "value": "< 50", "unit": "nM"}
    ]},
    {"smiles": "COc1ccc(Oc2ccc(C(F)(F)F)cc2)cc1NC(=O)C1COC(=O)N1C", "note": "(stereo not shown) [Compound 87, N-(2-Methoxy-5-(4-(trifluoromethyl)phenoxy)phenyl)-3-methyl-2-oxo-oxazolidine-4-carboxamide]", "values": [
      {"measurement": "IC50", "value": "< 50", "unit": "nM"}
    ]},
    {"smiles": "CN1C(=O)CC[C@@H]1C(=O)Nc1cc(Oc2ccc(C(F)F)cc2)cc2c1OCC2", "note": "[Compound 215, (R)—N-(5-(4-(Difluoromethyl)phenoxy)-2,3-dihydrobenzofuran-7-yl)-1-methyl-5-oxopyrrolidine-2-carboxamide]", "values": [
      {"measurement": "IC50", "value": "< 50", "unit": "nM"}
    ]},
    {"smiles": "COc1ccc(Oc2ccc(C(F)(F)F)cc2)cc1NC(=O)[C@@H]1CCC(=O)N1C", "note": "[Compound 70, (S)—N-(2-Methoxy-5-(4-(trifluoromethyl)phenoxy)phenyl)-1-methyl-5-oxo-pyrrolidine-2-carboxamide]", "values": [
      {"measurement": "IC50", "value": "< 50", "unit": "nM"}
    ]},
    {"smiles": "COc1ccc(Oc2ccc(C(F)F)cc2)cc1NC(=O)[C@@H]1CNC(=O)N1C", "note": "[Compound 340, (S)—N-(5-(4-(Difluoromethyl)phenoxy)-2-methoxyphenyl)-3-methyl-2-oxo-imidazolidine-4-carboxamide]", "values": [
      {"measurement": "IC50", "value": "< 50", "unit": "nM"}
    ]},
    {"smiles": "COc1ccc(Oc2ccc(C(F)(F)F)cc2)cc1NC(=O)C1CNC(=O)N1", "note": "(stereo not shown) [Compound 144, N-(2-Methoxy-5-(4-(trifluoromethyl)phenoxy)phenyl)-2-oxoimidazolidine-4-carboxamide]", "values": [
      {"measurement": "IC50", "value": "50 to 300", "unit": "nM"}
    ]}
  ]
}
